PubChem BioAssay AID330 (DTP/NCI, 2004)
Inconclusive results and toxic doses are left out. The calls were made as follows: active = survival T/C of 150% or more; inactive = T/C below 125% in these data.

Tested on: P388 leukemia ip, CD2F1 mice, survival T/C
Assay: NCI In Vivo Anticancer Drug Screen. Data for tumor model P388 Leukemia (intraperitoneal) in CD2F1 (CDF1) mice
Details: endpoint: median survival time, higher = longer survival
Procedure, shortened: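 Mice carrying the transplanted tumor received test compound or vehicle. Survival was recorded in each group, and the value is the treated-group measurement divided by that of the vehicle-treated control group.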

[1] = dose: 60.0 mg/kg/injection, schedule: Q01DX005 (ip), vehicle: saline with Tween-80
[2] = dose: 120.0 mg/kg/injection, schedule: Q01DX005 (ip), vehicle: saline with Tween-80
[3] = dose: 240.0 mg/kg/injection, schedule: Q01DX005 (ip), vehicle: saline with Tween-80
[4] = dose: 50.0 mg/kg/injection, schedule: Q01DX009 (ip), vehicle: saline with Tween-80
[5] = dose: 100.0 mg/kg/injection, schedule: Q01DX009 (ip), vehicle: saline with Tween-80
[6] = dose: 200.0 mg/kg/injection, schedule: Q01DX009 (ip), vehicle: saline with Tween-80
[7] = dose: 25.0 mg/kg/injection, schedule: Q01DX009 (ip), vehicle: Klucel (hydroxypropylcellulose) (HPC)
[8] = dose: 50.0 mg/kg/injection, schedule: Q01DX009 (ip), vehicle: Klucel (hydroxypropylcellulose) (HPC)
[9] = dose: 100.0 mg/kg/injection, schedule: Q01DX009 (ip), vehicle: Klucel (hydroxypropylcellulose) (HPC)
[10] = dose: 200.0 mg/kg/injection, schedule: Q01DX009 (ip), vehicle: Klucel (hydroxypropylcellulose) (HPC)
[11] = dose: 50.0 mg/kg/injection, schedule: Q01DX005 (ip), vehicle: saline
[12] = dose: 100.0 mg/kg/injection, schedule: Q01DX005 (ip), vehicle: saline
[13] = dose: 200.0 mg/kg/injection, schedule: Q01DX005 (ip), vehicle: saline
[14] = dose: 50.0 mg/kg/injection, schedule: Q01DX005 (ip), vehicle: Klucel (hydroxypropylcellulose) (HPC)
[15] = dose: 100.0 mg/kg/injection, schedule: Q01DX005 (ip), vehicle: Klucel (hydroxypropylcellulose) (HPC)
[16] = dose: 200.0 mg/kg/injection, schedule: Q01DX005 (ip), vehicle: Klucel (hydroxypropylcellulose) (HPC)
[17] = dose: 60.0 mg/kg/injection, schedule: Q01DX005 (ip), vehicle: Klucel (hydroxypropylcellulose) (HPC)
[18] = dose: 120.0 mg/kg/injection, schedule: Q01DX005 (ip), vehicle: Klucel (hydroxypropylcellulose) (HPC)
[19] = dose: 240.0 mg/kg/injection, schedule: Q01DX005 (ip), vehicle: Klucel (hydroxypropylcellulose) (HPC)
[20] = dose: 12.5 mg/kg/injection, schedule: Q01DX009 (ip), vehicle: saline with Tween-80
[21] = dose: 25.0 mg/kg/injection, schedule: Q01DX009 (ip), vehicle: saline with Tween-80

Measured: T/C

Cc1cccc(Nc2cc(=O)[nH]c(=O)[nH]2)c1
inactive: dose: 100.0 mg/kg/injection, schedule: Q04DX003 (ip), vehicle: Klucel (hydroxypropylcellulose) (HPC) 110 % of control | dose: 200.0 mg/kg/injection, schedule: Q04DX003 (ip), vehicle: Klucel (hydroxypropylcellulose) (HPC) 98 % of control

CCOC(=O)c1ccc(NC(=O)Oc2ccc(C(=O)OC)cc2)cc1
inactive: [1] 103 % of control | [2] 100 % of control | [3] 103 % of control

CC12C=C3C4(CCCC3(O1)c1ccccc12)OCCO4 (stereo not given)
inactive: [4] 96 % of control | [5] 102 % of control | [6] 99 % of control

O=C(O)Cn1/c(=N\N=C\c2ccccc2)sc2ccccc21
inactive: dose: 100.0 mg/kg/injection, schedule: Q01DX001 (ip), vehicle: saline with Tween-80 101 % of control | dose: 200.0 mg/kg/injection, schedule: Q01DX001 (ip), vehicle: saline with Tween-80 91 % of control | dose: 400.0 mg/kg/injection, schedule: Q01DX001 (ip), vehicle: saline with Tween-80 93 % of control

O=C(O)CCC(NC(=O)c1ccc(N(CCCO)CC2CNc3nc(NCCCO)[nH]c(=O)c3N2CCCO)cc1)C(=O)O (stereo not given)
inactive: dose: 50.0 mg/kg/injection, schedule: Q04DX003 (ip), vehicle: alkali diluted with saline 98 % of control | dose: 100.0 mg/kg/injection, schedule: Q04DX003 (ip), vehicle: alkali diluted with saline 109 % of control | dose: 200.0 mg/kg/injection, schedule: Q04DX003 (ip), vehicle: alkali diluted with saline 98 % of control

COC1/C=C\OC2(C)Oc3c(C)c(O)c4c(O)c(c5sc(N)nc5c4c3C2=O)NC(=O)/C(C)=C\C=C\C(C)C(O)C(C)C(O)C(C)C(OC(C)=O)C1C (stereo not given)
inactive: [7] 100 % of control | [8] 102 % of control | [9] 100 % of control | [10] 100 % of control

Clc1ccccc1N=Cc1ccc(C=Nc2ccccc2Cl)cc1
inactive: dose: 12.5 mg/kg/injection, schedule: Q01DX009 (ip), vehicle: Klucel (hydroxypropylcellulose) (HPC) 99 % of control | [7] 92 % of control

COc1cccc(CC(=O)NCCc2ccc(OC)c(OC)c2)c1
inactive: [5] 100 % of control | [6] 100 % of control | dose: 400.0 mg/kg/injection, schedule: Q01DX009 (ip), vehicle: saline with Tween-80 104 % of control

O=C(O)c1ccc(O)c(C(=O)O)c1
inactive: [4] 94 % of control | [5] 94 % of control

O=C(C[n+]1ccccc1)NC(O)C(Cl)(Cl)Cl (stereo not given)
inactive: [11] 106 % of control | [12] 105 % of control | [13] 109 % of control

CN(C)CCSC1=Nc2ccc(Cl)cc2C(c2ccccc2Cl)=NC1
inactive: [1] 98 % of control | dose: 60.0 mg/kg/injection, schedule: Q01DX005 (ip), vehicle: saline 99 % of control | [2] 101 % of control | dose: 120.0 mg/kg/injection, schedule: Q01DX005 (ip), vehicle: saline 104 % of control | [3] 105 % of control | dose: 240.0 mg/kg/injection, schedule: Q01DX005 (ip), vehicle: saline 98 % of control

COc1ccccc1/C=C(/C)[N+](=O)[O-]
inactive: dose: 10.0 mg/kg/injection, schedule: Q01DX010 (ip), vehicle: saline 109 % of control | dose: 14.0 mg/kg/injection, schedule: Q01DX010 (ip), vehicle: saline 90 % of control | dose: 22.0 mg/kg/injection, schedule: Q01DX010 (ip), vehicle: saline 100 % of control | dose: 33.0 mg/kg/injection, schedule: Q01DX010 (ip), vehicle: saline 109 % of control | dose: 50.0 mg/kg/injection, schedule: Q01DX010 (ip), vehicle: saline 100 % of control | dose: 75.0 mg/kg/injection, schedule: Q01DX010 (ip), vehicle: saline 118 % of control

COc1cc([N+](=O)[O-])c2nccc(C)c2c1
inactive: [7] 100 % of control | [8] 101 % of control | [9] 101 % of control | [10] 104 % of control

CC(=O)Oc1c(C)c2c(O)c3c1C1=C(OCOC1=C(C)C3=O)C(C)=CC(C)(O)C(O)C(C)C(O)C1C(=O)OC(C(C)/C=C\C=C(C)C(=O)N2)C(C)C1O (stereo not given)
inactive: [14] 108 % of control | [8] 99 % of control | [15] 108 % of control | [9] 100 % of control | [16] 108 % of control | [10] 104 % of control | dose: 400.0 mg/kg/injection, schedule: Q01DX009 (ip), vehicle: Klucel (hydroxypropylcellulose) (HPC) 103 % of control

CC1C(c2ccccc2)OCN1CC=C(c1ccsc1)c1ccsc1 (stereo not given)
inactive: [17] 96 % of control | [18] 91 % of control | [19] 91 % of control

CCOC(=O)c1ccc(NC(=O)Nc2ccc(N(C)C(C)=O)cc2)cc1
inactive: [17] 90 % of control | [18] 90 % of control | [19] 88 % of control

CCOC(=O)C1C(=O)N(C)C(=O)N1c1ccc(C)cc1 (stereo not given)
inactive: [1] 98 % of control | [2] 87 % of control

CCOC(=O)CN1CCCC(C(=O)CC2(O)C3(Cl)C4(Cl)C5(Cl)C(Cl)(Cl)C6(Cl)C4(Cl)C2(Cl)C6(Cl)C53Cl)C1 (stereo not given)
inactive: [20] 97 % of control | [21] 98 % of control | [4] 101 % of control | [5] 100 % of control

COc1ccc(C2COc3cc(OC(C)=O)c(OC(C)=O)cc3C2)cc1 (stereo not given)
inactive: [1] 103 % of control | [2] 103 % of control | [3] 103 % of control

COC(=O)c1cc(Cl)ccc1OCC(O)CNc1ccc(Cl)cc1C(=O)c1ccccc1 (stereo not given)
inactive: [1] 92 % of control | [2] 100 % of control | [3] 90 % of control

CC1(C)Cc2c(nc3ccccc3c2C(N)=O)-c2ccccc21
inactive: [14] 88 % of control | [15] 88 % of control | [16] 88 % of control

Cc1ccc(C(O)(CS(C)=O)c2ccco2)cc1 (stereo not given)
inactive: [20] 100 % of control | [21] 100 % of control | [4] 100 % of control

CC1(C)Oc2c(C=O)c(O)cc3c2C2CC1CCC2(C)O3 (stereo not given)
inactive: dose: 9.0 mg/kg/injection, schedule: Q01DX009 (ip), vehicle: saline with Tween-80 102 % of control | dose: 18.0 mg/kg/injection, schedule: Q01DX009 (ip), vehicle: saline with Tween-80 96 % of control | dose: 36.0 mg/kg/injection, schedule: Q01DX009 (ip), vehicle: saline with Tween-80 102 % of control

ONc1ccccc1C(F)(F)F
inactive: dose: 50.0 mg/kg/injection, schedule: Q01DX009 (ip), vehicle: saline 97 % of control | dose: 100.0 mg/kg/injection, schedule: Q01DX009 (ip), vehicle: saline 95 % of control

Cc1ccc(CN(S(=O)(=O)c2ccc(C)cc2)S(=O)(=O)c2ccc(C)cc2)cc1
inactive: [5] 88 % of control | [6] 113 % of control

CC(C)C(O)(C(=O)OCC1=CCN2CCC(O)C12)C(C)O (stereo not given)
inactive: [11] 103 % of control | [12] 109 % of control | [13] 117 % of control
